Measurements as given in ChEMBL document CHEMBL3120140, “Balgacyclamides, antiplasmodial heterocyclic peptides from Microcystis aeruguinosa EAWAG 251” (J Nat Prod, 2014).

Legend:
[1] = system: Leishmania donovani; assay: Antileishmanial activity against Leishmania donovani MHOM-ET-67/L82; format: functional, organism-based
[2] = system: Trypanosoma brucei rhodesiense; assay: Antitrypanosomal activity against Trypanosoma brucei rhodesiense STIB 900 after 72 hrs by Alamar blue assay; format: functional, organism-based; settings: STIB 900, 72 h
[3] = system: Trypanosoma cruzi; assay: Antitrypanosomal activity against Trypanosoma cruzi Tulahuen C4; format: functional, organism-based
[4] = system: Plasmodium falciparum; assay: Antiplasmodial activity against chloroquine-resistant Plasmodium falciparum K1 infected in human RBC after 48 hrs by [3H]-hypoxanthine incorporation assay; format: functional, organism-based
[5] = system: L6; assay: Cytotoxicity against rat L6 cells after 72 hrs by Alamar blue assay; format: cell-based; settings: L6, 72 h

## CC[C@H](C)[C@H]1NC(=O)[C@H]2N=C(O[C@@H]2C)[C@H](C(C)C)NC(=O)[C@H]([C@@H](C)O)NC(=O)[C@@H](C)NC(=O)c2csc1n2
[1]
  IC50: 28 µM
[2]
  IC50: 51 µM
[3]
  IC50: > 150 µM
[4]
  IC50: 8.2 µM
[5]
  IC50: > 150 µM

## CC[C@H](C)[C@H]1NC(=O)[C@H]2N=C(O[C@@H]2C)[C@H](C(C)C)NC(=O)[C@H]2N=C(O[C@@H]2C)[C@@H](C)NC(=O)c2csc1n2
[1]
  IC50: > 150 µM
[2]
  IC50: 59 µM
[3]
  IC50: > 150 µM
[4]
  IC50: 9 µM
[5]
  IC50: > 150 µM
